The record followed here is patent publication US20100144755A1 (Glaxo Group Limited, priority 2006, published 2010).

Entries after “also recorded” stand apart in the source; their conditions may differ. Counter-ions that a name gives are not always drawn.

This test has as its system influx of neutrophils to the lung in LPS-challenged rats. Description: Rat LPS neutrophilia model. The format is in vivo. To be noted: LPS aerosol, intratracheal dosing, in at least one of the range of conditions tested, significance p<0.05. In a few lines: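 Compound given intratracheally (200 ul suspension or dry powder via microsprayer) to isoflurane-anesthetized rats 15 min–24 h before 15 min LPS aerosol (100 ug/ml). Lavage 4 h post-challenge; neutrophils from differential counts. % inhibition versus no-compound controls at a given concentration and pretreat time.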
`CCN(CC)CCCNc1nc(-c2cc(C(=O)N(C)C)ccc2C)c2ccc(=O)n(-c3c(F)cccc3F)c2n1` [Example 120, 3-[2-{[3-(diethylamino)propyl]amino}-8-(2,6-difluorophenyl)-7-oxo-7,8-dihydropyrido[2,3-d]pyrimidin-4-yl]-N,N,4-trimethylbenzamide]: the inhibition of neutrophilia entry was “statistically nonsignificant inhibition; also recorded: inactive”.
As to `CCCNC(=O)c1ccc(C)c(-c2nc(NCCCN(CC)CC)nc3c2ccc(=O)n3-c2c(F)cccc2F)c1` [Example 122, 3-[2-{[3-(diethylamino)propyl]amino}-8-(2,6-difluorophenyl)-7-oxo-7,8-dihydropyrido[2,3-d]pyrimidin-4-yl]-4-methyl-N-propylbenzamide], the inhibition of neutrophilia entry is recorded as “statistically nonsignificant inhibition”.
For the compound `CCN(CC)CCCNc1nc(-c2cc(C(=O)NCC(C)C)ccc2C)c2ccc(=O)n(-c3c(F)cccc3F)c2n1` [Example 124, 3-[2-{[3-(diethylamino)propyl]amino}-8-(2,6-difluorophenyl)-7-oxo-7,8-dihydropyrido[2,3-d]pyrimidin-4-yl]-4-methyl-N-(2-methylpropyl)benzamide], the inhibition of neutrophilia result is reported as “statistically significant inhibition”.
The result for `CCN(CC)CCCNc1nc(-c2cc(C(=O)NC3CCCC3)ccc2C)c2ccc(=O)n(-c3c(F)cccc3F)c2n1` [Example 125, N-cyclopentyl-3-[2-{[3-(diethylamino)propyl]amino}-8-(2,6-difluorophenyl)-7-oxo-7,8-dihydropyrido[2,3-d]pyrimidin-4-yl]-4-methylbenzamide] reads “statistically nonsignificant inhibition”; that for `CCN(CC)CCCNc1nc(-c2cc(C(=O)NCC(F)(F)F)ccc2C)c2ccc(=O)n(-c3c(F)cccc3F)c2n1` [Example 128, 3-[2-{[3-(diethylamino)propyl]amino}-8-(2,6-difluorophenyl)-7-oxo-7,8-dihydropyrido[2,3-d]pyrimidin-4-yl]-4-methyl-N-(2,2,2-trifluoroethyl)benzamide], “inactive”.
On to `CCNC(=O)c1ccc(C)c(-c2nc(NCCCN(CC)CC)nc3c2ccc(=O)n3-c2c(F)cccc2F)c1` [Example 129, 3-[2-{[3-(diethylamino)propyl]amino}-8-(2,6-difluorophenyl)-7-oxo-7,8-dihydropyrido[2,3-d]pyrimidin-4-yl]-N-ethyl-4-methylbenzamide], for which the inhibition of neutrophilia entry was “statistically nonsignificant inhibition”.
`CCN(CC)CCCNc1nc(-c2cc(C(=O)NCC3CCCC3)ccc2C)c2ccc(=O)n(-c3c(F)cccc3F)c2n1` [Example 132, N-(cyclopentylmethyl)-3-[2-{[3-(diethylamino)propyl]amino}-8-(2,6-difluorophenyl)-7-oxo-7,8-dihydropyrido[2,3-d]pyrimidin-4-yl]-4-methylbenzamidetrifluoroacetate]: the inhibition of neutrophilia entry was “statistically nonsignificant inhibition”.
The value for `CCN(CC)CCCNc1nc(-c2cc(C(=O)NCCF)ccc2C)c2ccc(=O)n(-c3c(F)cccc3F)c2n1` [Example 133, 3-[2-{[3-(diethylamino)propyl]amino}-8-(2,6-difluorophenyl)-7-oxo-7,8-dihydropyrido[2,3-d]pyrimidin-4-yl]-N-(2-fluoroethyl)-4-methylbenzamidetrifluoroacetate] was “statistically significant inhibition”; that for `CCN(CC)CCCNc1nc(-c2cc(C(=O)NCCOC)ccc2C)c2ccc(=O)n(-c3c(F)cccc3F)c2n1` [Example 134, 3-[2-{[3-(diethylamino)propyl]amino}-8-(2,6-difluorophenyl)-7-oxo-7,8-dihydropyrido[2,3-d]pyrimidin-4-yl]-4-methyl-N-[2-(methyloxy)ethyl]benzamidetrifluoroacetate] was “statistically nonsignificant inhibition”.
For `CCN(CC)CCCNc1nc(-c2cc(C(=O)NCC3CCCCC3)ccc2C)c2ccc(=O)n(-c3c(F)cccc3F)c2n1` [Example 135, N-(cyclohexylmethyl)-3-[2-{[3-(diethylamino)propyl]amino}-8-(2,6-difluorophenyl)-7-oxo-7,8-dihydropyrido[2,3-d]pyrimidin-4-yl]-4-methylbenzamidetrifluoroacetate], the inhibition of neutrophilia result is “inactive”.
The value for `CCN(CC)CCCNc1nc(-c2cc(C(=O)NC3CCC3)ccc2C)c2ccc(=O)n(-c3c(F)cccc3F)c2n1` [Example 137, N-cyclobutyl-3-[2-{[3-(diethylamino)propyl]amino}-8-(2,6-difluorophenyl)-7-oxo-7,8-dihydropyrido[2,3-d]pyrimidin-4-yl]-4-methylbenzamide trifluoroacetate] was “statistically significant inhibition”; that for `CCN(CC)CCCNc1nc(-c2cc(C(=O)NCC3CC3)ccc2C)c2ccc(=O)n(-c3c(F)cccc3F)c2n1` [Example 138, N-(cyclopropylmethyl)-3-[2-{[3-(diethylamino)propyl]amino}-8-(2,6-difluorophenyl)-7-oxo-7,8-dihydropyrido[2,3-d]pyrimidin-4-yl]-4-methylbenzamide trifluoroacetate] was “statistically nonsignificant inhibition”.
In the case of `CCN(CC)CCCNc1nc(-c2cc(C(=O)Nc3ccccc3)ccc2C)c2ccc(=O)n(-c3c(F)cccc3F)c2n1` [Example 147, 3-[2-{[3-(diethylamino)propyl]amino}-8-(2,6-difluorophenyl)-7-oxo-7,8-dihydropyrido[2,3-d]pyrimidin-4-yl]-4-methyl-N-phenylbenzamide], the inhibition of neutrophilia entry is “statistically nonsignificant inhibition”.
As to `CCN(CC)CCCNc1nc(-c2cc(C(=O)N[C@@H](C)c3ccccc3)ccc2C)c2ccc(=O)n(-c3c(F)cccc3F)c2n1` [Example 149, 3-[2-{[3-(diethylamino)propyl]amino}-8-(2,6-difluorophenyl)-7-oxo-7,8-dihydropyrido[2,3-d]pyrimidin-4-yl]-4-methyl-N-[(1S)-1-phenylethyl]benzamide], the inhibition of neutrophilia entry is “inactive”.
Regarding `CCN(CC)CCCNc1nc(-c2cc(C(=O)Nc3ccc(F)cc3)ccc2C)c2ccc(=O)n(-c3c(F)cccc3F)c2n1` [Example 160, 3-[2-{[3-(diethylamino)propyl]amino}-8-(2,6-difluorophenyl)-7-oxo-7,8-dihydropyrido[2,3-d]pyrimidin-4-yl]-N-(4-fluorophenyl)-4-methylbenzamide], the inhibition of neutrophilia entry is “statistically significant inhibition”.
As for `CCC(C)NC(=O)c1ccc(C)c(-c2nc(NCCCN(CC)CC)nc3c2ccc(=O)n3-c2c(F)cccc2F)c1` (centres unmarked) [Example 162, 3-[2-{[3-(diethylamino)propyl]amino}-8-(2,6-difluorophenyl)-7-oxo-7,8-dihydropyrido[2,3-d]pyrimidin-4-yl]-4-methyl-N-(1-methylpropyl)benzamide], the inhibition of neutrophilia entry is listed as “statistically nonsignificant inhibition”.
Regarding `CCCNC(=O)c1ccc(C)c(-c2nc(N3CCC(N4CCC(C)CC4)CC3)nc3c2ccc(=O)n3-c2c(F)cccc2F)c1` [Example 166, 3-[8-(2,6-difluorophenyl)-2-(4-methyl-1,4′-bipiperidin-1′-yl)-7-oxo-7,8-dihydropyrido[2,3-d]pyrimidin-4-yl]-4-methyl-N-propylbenzamide], the inhibition of neutrophilia result is “statistically significant inhibition”.
